These results are taken from US11825838B2, “Tricyclic carboxamides for controlling arthropods” (Bayer CropScience Aktiengesellschaft, priority 2017, dated 2023).

What all share (assay type): in vivo
One experiment has as its system Tetranychus urticae. Nature of the experiment: Tetranychus urticae spray test, OP-resistant (TETRUR). As to conditions: for efficacy: spray, after 6 days. The protocol: Tetranychus urticae—Spray Test, OP-Resistant
(§1) To produce a suitable active ingredient formulation, 1 part by weight of active ingredient is dissolved with the specified parts by weight of solvent and made up to the desired concentration with water containing an emulsifier concentration of 1000 ppm. To produce further test concentrations, the formulation is diluted with emulsifier-containing water.
Discs of bean leaves (Phaseolus vulgaris) infested with all stages of the greenhouse red spider mite (Tetranychus urticae) are sprayed with an active compound preparation of the desired concentration.
After 6 days, the efficacy in % is determined. 100% means that all the spider mites have been killed; 0% means that no spider mites have been killed.
Tetranychus urticae—Spray Test; OP-Resistant (TETRUR)
(§2) To produce a suitable active compound formulation, 1 part by weight of active compound is dissolved with the specified parts by weight of solvent and made up to the desired concentration with water containing an emulsifier concentration of 1000 ppm. To produce further test concentrations, the formulation is diluted with emulsifier-containing water.
Discs of bean leaves (Phaseolus vulgaris) infested with all stages of the greenhouse red spider mite (Tetranychus urticae) are sprayed with an active compound formulation of the desired concentration.
After the desired time, the efficacy in % is determined. 100% means that all the spider mites have been killed; 0% means that no spider mites have been killed.

A further experiment relates to Myzus persicae. Nature of the experiment: Myzus persicae spray test (MYZUPE). As to conditions: Myzus persicae, 144 h; MYZUPE, 100 g ai/ha, 6 dat; read-out: % efficacy dat. The protocol: Myzus persicae—Spray Test
as §1
Discs of Chinese cabbage leaves (Brassica pekinensis) infested by all stages of the green peach aphid (Myzus persicae) are sprayed with an active compound preparation of the desired concentration.
After 5 days, the efficacy in % is determined. 100% means that all the aphids have been killed; 0% means that no aphids have been killed.
Myzus Persicae—Spray Test (MYZUPE)
as §2
Discs of Chinese cabbage leaves (Brassica pekinensis) infested with all stages of the green peach aphid (Myzus persicae) are sprayed with an active compound formulation of the desired concentration.
After the desired time, the efficacy in % is determined. 100% means that all the aphids have been killed; 0% means that no aphids have been killed.

Another experiment relates to Spodoptera frugiperda. Nature of the experiment: Spodoptera frugiperda spray test (SPODFR). Conditions: for efficacy / pest or weed control at 100 g/ha: application rate 100 g/ha, spray, after 7 days; for pest or weed control at 100 g/ha: read-out: efficacy. On the procedure: Spodoptera frugiperda—Spray Test
as §1
Leaf discs of maize (Zea mays) are sprayed with an active ingredient formulation of the desired concentration and, after drying, populated with caterpillars of the armyworm (Spodoptera frugiperda).
After 7 days, the efficacy in % is determined. 100% means that all the caterpillars have been killed; 0% means that no caterpillar has been killed.
Spodoptera frugiperda—Spray Test (SPODFR)
as §2
Leaf discs of maize (Zea mays) are sprayed with an active compound formulation of the desired concentration and, after drying, populated with caterpillars of the armyworm (Spodoptera frugiperda).
After the desired time, the efficacy in % is determined. 100% means that all the caterpillars have been killed; 0% means that no caterpillar has been killed.

A further experiment has as its system Phaedon cochleariae. Nature of the experiment: Phaedon cochleariae spray test (PHAECO). As to conditions: for efficacy / pest or weed control at 100 g/ha: application rate 100 g/ha, spray, after 7 days; for pest or weed control at 100 g/ha: read-out: efficacy. The protocol: Phaedon cochleariae—Spray Test
as §1
After 7 days, the efficacy in % is determined. 100% means that all the beetle larvae have been killed; 0% means that no beetle larvae have been killed.
Phaedon cochleariae—Spray Test (PHAECO)
as §2
Discs of Chinese cabbage leaves (Brassica pekinensis) are sprayed with an active compound formulation of the desired concentration and, after drying, populated with larvae of the mustard beetle (Phaedon cochleariae).
After the desired time, the efficacy in % is determined. 100% means that all the beetle larvae have been killed; 0% means that no beetle larvae have been killed.

For the next experiment, the system named is Lucilia cuprina. Nature of the experiment: Lucilia cuprina test. Conditions: application rate 100 ppm, L1 larvae, after 2 days. The protocol: (§3) Solvent: dimethyl sulfoxide
(§4) To produce a suitable active ingredient formulation, 10 mg of active ingredient are mixed with 0.5 ml of dimethyl sulfoxide, and the concentrate is diluted with water to the desired concentration.
About 20 L1 larvae of the Australian sheep blowfly (Lucilia cuprina) are transferred into a test vessel containing minced horsemeat and the active compound preparation of the desired concentration.
After 2 days, the rate of extermination in % is determined. 100% means that all the larvae have been killed; 0% means that no larvae have been killed.

A further experiment has as its system Boophilus microplus. Nature of the experiment: Boophilus microplus injection test. As to conditions: application rate 20 μg/animal, assessed after 7 days by laying of fertile eggs. On the procedure:
Boophilus microplus—Injection Test
as §3
To produce a suitable active compound preparation, 10 mg of active compound are mixed with 0.5 ml of solvent and the concentrate is diluted to the desired concentration with solvent.
1 μl of the active ingredient solution is injected into the abdomen of 5 engorged adult female cattle ticks (Boophilus microplus). The animals are transferred into dishes and kept in a climate-controlled room.
(§5) Efficacy is assessed after 7 days by laying of fertile eggs. Eggs which are not visibly fertile are stored in a climate-controlled cabinet until the larvae hatch after about 42 days. An efficacy of 100% means that none of the ticks has laid any fertile eggs; 0% means that all the eggs are fertile.

The subject of a further experiment is Ctenocephalides felis. Nature of the experiment: Ctenocephalides felis oral test. Conditions: application rate 100 ppm in citrated cattle blood, after 2 days. The protocol: Ctenocephalides felis—Oral Test
as §3
To produce a suitable active ingredient formulation, 10 mg of active ingredient are mixed with 0.5 ml of dimethyl sulfoxide. Dilution with citrated cattle blood gives the desired concentration.
About 20 unfed adult cat fleas (Ctenocephalides felis) are placed into a chamber which is closed at the top and bottom with gauze. A metal cylinder whose bottom end is closed with parafilm is placed onto the chamber. The cylinder contains the blood/active ingredient formulation, which can be imbibed by the fleas through the parafilm membrane.
After 2 days, the rate of extermination in % is determined. 100% means that all of the fleas have been killed; 0% means that none of the fleas have been killed.

A further experiment deals with Musca domestica. Nature of the experiment: Musca domestica test. As to conditions: application rate 100 ppm, adult houseflies, after 2 days. On the procedure: as §3, §4
Vessels containing a sponge treated with sugar solution and the active ingredient formulation of the desired concentration are populated with 10 adult houseflies (Musca domestica).
After 2 days, the rate of extermination in % is determined. 100% means that all of the flies have been killed; 0% means that none of the flies have been killed.

In a further experiment the test system is Rhipicephalus sanguineus. Nature of the experiment: Rhipicephalus sanguineus in vitro contact test with adult brown dog ticks. Conditions: application rate 5 μg/cm^2 (=500 g/ha), after 48 h, adult dog ticks dead or moribund. On the procedure:
Rhipicephalus sanguineus—In Vitro Contact Tests with Adult Brown Dog Ticks
For the coating of the test tubes, 9 mg of active ingredient are first dissolved in 1 ml of acetone p.a. and then diluted to the desired concentration with acetone p.a. 250 μl of the solution are distributed homogeneously on the inner walls and the base of a 25 ml glass tube by turning and rocking on an orbital shaker (rocking rotation at 30 rpm for 2 h). With 900 ppm of active ingredient solution and internal surface area 44.7 cm^2, given homogeneous distribution, an area-based dose of 5 μg/cm^2 is achieved.
After the solvent has evaporated off, the tubes are populated with 5-10 adult dog ticks (Rhipicephalus sanguineus), sealed with a perforated plastic lid and incubated in a horizontal position in the dark at room temperature and ambient humidity. After 48 h, efficacy is determined. To this end, the ticks are knocked to the base of the tube and incubated on a hotplate at 45-50° C. for not more than 5 min. Ticks which remain motionless on the base or move in such an uncoordinated manner that they are unable to deliberately avoid the heat by climbing upwards are considered to be dead or moribund.
An efficacy of 100% means that all the ticks were dead or moribund. 0% efficacy means that none of the ticks were harmed.

In experiment [1] the test system is cattle ticks (Boophilus microplus) Parkhurst strain, SP-resistant. Nature of the experiment: Boophilus microplus dip test. Conditions: application rate 100 ppm, assessed after 7 days by laying of fertile eggs. On the procedure: Boophilus microplus—Dip Test
Test animals: cattle ticks (Boophilus microplus) Parkhurst strain, SP-resistant
as §3
10 mg of active ingredient are dissolved in 0.5 ml of dimethyl sulfoxide. To produce a suitable formulation, the active ingredient solution is diluted with water to the concentration desired in each case. This active ingredient formulation is pipetted into tubes. 8-10 engorged adult female cattle ticks (Boophilus microplus) are transferred into a further tube with holes. The tube is immersed into the active ingredient formulation, and all the ticks are completely wetted. After the liquid has run out, the ticks are transferred on filter discs into plastic dishes and stored in a climate-controlled room.
as §5

Consider `CS(=O)(=O)NC(=O)c1csc(-c2cnn(-c3cccnc3)c2)n1` [Example No. 36 WO2012/000896, reference compound], for which the Emax at 500 g/ha was 0% in the experiment with Tetranychus urticae (Tetranychus urticae, 144 h, TETRUR, 500 g ai/ha, 6 dat, read-out: % efficacy dat); 0% in the experiment on Spodoptera frugiperda (Spodoptera frugiperda, 168 h, SPODFR, 500 g ai/ha, 7 dat, read-out: % efficacy dat); 0% with Phaedon cochleariae (Phaedon cochleariae, 168 h, PHAECO, 500 g ai/ha, 7 dat, read-out: % efficacy dat). In the experiment on Myzus persicae, the Emax at 100 g/ha amounted to 0%.
As for `Cn1cc(-c2cnn(-c3c(Cl)cc(C(F)(C(F)(F)F)C(F)(F)F)cc3Cl)c2)cc1C(=O)NC1(C#N)CC1` [I-T1-4], the “efficacy (rate of extermination)” value in the experiment with Lucilia cuprina and with Ctenocephalides felis was 100% each time. Besides, the efficacy in the experiment with Phaedon cochleariae and in the experiment on Boophilus microplus was 100% each time.
Turning to `N#CC1(NC(=O)c2csc(-c3cnn(-c4c(Cl)cc(C(F)(C(F)(F)F)C(F)(F)F)cc4Cl)c3)n2)CC1` [I-T1-5, N-(1-cyanocyclopropyl)-2-{1-[2,6-dichloro-4-(1,1,1,2,3,3,3-heptafluoropropan-2-yl)phenyl]-1H-pyrazol-4-yl}-1,3-thiazole-4-carboxamide], the “efficacy (rate of extermination)” value with Lucilia cuprina is recorded as 80%; in the experiment on Ctenocephalides felis, 100%; with Musca domestica, 90%. Further, the pest or weed control at 100 g/ha in the experiment with Phaedon cochleariae (Phaedon cochleariae, 168 h) was 100%.
On to `O=C(NCc1ccccc1)c1cc(-c2cnn(-c3c(Cl)cc(C(F)(C(F)(F)F)C(F)(F)F)cc3Cl)c2)sc1Br` [I-T1-6], for which the figures for the “efficacy (rate of extermination)” value in the experiment on Lucilia cuprina and in the experiment on Ctenocephalides felis were 95% and 100%, respectively. Further, the efficacy in the experiment on Spodoptera frugiperda and with Boophilus microplus was 100% each time.
For `O=C(NC1CC1)c1nc(-c2cnn(-c3c(Cl)cc(C(F)(C(F)(F)F)C(F)(F)F)cc3Cl)c2)sc1Cl` [I-T1-7], the efficacy was found to be 83% in the experiment with Phaedon cochleariae and 100% in the experiment with Boophilus microplus.
As to `O=C(NC1CC1)c1csc(-c2cnn(-c3c(Cl)cc(C(F)(C(F)(F)F)C(F)(F)F)cc3Cl)c2)n1` [I-T1-8], the “efficacy (rate of extermination)” value with Lucilia cuprina was 80%; with Ctenocephalides felis it was 100%. Besides, in the experiment with Phaedon cochleariae, the efficacy stood at 83%.
With `O=C(NC1CC1)c1cc(-c2cnn(-c3c(Cl)cc(C(F)(C(F)(F)F)C(F)(F)F)cc3Cl)c2)sc1I` [I-T1-14], the efficacy (with Tetranychus urticae (application rate 100 g/ha); in the experiment on Spodoptera frugiperda; in the experiment on Phaedon cochleariae; in the experiment with Rhipicephalus sanguineus; with Boophilus microplus; in experiment [1]) was 100% each time. Also, the “efficacy (rate of extermination)” value in the experiment with Lucilia cuprina, in the experiment with Ctenocephalides felis and in the experiment on Musca domestica was 100% throughout.
Turning to `N#CC1(NC(=O)c2cc(-c3cnn(-c4c(Cl)cc(C(F)(C(F)(F)F)C(F)(F)F)cc4Cl)c3)sc2I)CC1` [I-T1-15], the efficacy in the experiment on Tetranychus urticae (application rate 20 g/ha) is recorded as 90%; in the experiment on Tetranychus urticae (application rate 100 g/ha), 100%; with Spodoptera frugiperda it was 100%; in the experiment with Phaedon cochleariae, 100%; in the experiment with Rhipicephalus sanguineus it was 80%; in the experiment on Boophilus microplus it was 100%. The “efficacy (rate of extermination)” value in the experiment on Lucilia cuprina, in the experiment on Ctenocephalides felis and in the experiment on Musca domestica was 100% each time.
For the compound `N#CC1(NC(=O)c2cc(-c3cnn(-c4c(Cl)cc(C(F)(C(F)(F)F)C(F)(F)F)cc4Cl)c3)sc2Cl)CC1` [I-T1-17, 2-chloro-N-(1-cyanocyclopropyl)-5-{1-[2,6-dichloro-4-(1,1,1,2,3,3,3-heptafluoropropan-2-yl)phenyl]-1H-pyrazol-4-yl}thiophene-3-carboxamide], the efficacy in the experiment on Tetranychus urticae (application rate 20 g/ha) and in the experiment with Tetranychus urticae (application rate 100 g/ha) was 100% in each case. Also, the pest or weed control at 100 g/ha in the experiment on Spodoptera frugiperda (Spodoptera frugiperda, 168 h) was determined as 100%; with Phaedon cochleariae (Phaedon cochleariae, 168 h), 100%.
`CN(C(=O)c1cc(-c2cnn(-c3c(Cl)cc(C(F)(C(F)(F)F)C(F)(F)F)cc3Cl)c2)sc1Cl)C1(C#N)CC1` [I-T1-18, 2-chloro-N-(1-cyanocyclopropyl)-5-{1-[2,6-dichloro-4-(1,1,1,2,3,3,3-heptafluoropropan-2-yl)phenyl]-1H-pyrazol-4-yl}-N-methylthiophene-3-carboxamide]: the pest or weed control at 100 g/ha came to 100% with Spodoptera frugiperda (Spodoptera frugiperda, 168 h) and 100% in the experiment on Phaedon cochleariae (Phaedon cochleariae, 168 h).
